Assay results as given in patent US8728506B2, “Durable pest repellent and pest repellent resin composition” (Toagosei Co., Ltd., priority 2009, dated 2014).

Legend:
house dust mite [1] = assay: Evaluation of persistence of repellence (after heating), JIS L 1920; assay type: in vivo; conditions: polyethylene plate, repellent chemical 0.3 %; held at 81° C. for 48 hours
Experimental: (§1) Plates molded after adding the pest repellents prepared in Examples 1-1 to 1-10 and Comparative Examples 1-1 to 1-14 and Comparative Reference Example 1-1 to a polyethylene resin (PE-NUC-8350 manufactured by Nippon Unicar Co., Ltd.) so that the pest repellent component was 0.3 mass % were held in a dryer at 81° C. for 48 hours. They were cut into circles having a diameter of a little under 4 cm and subjected to a test for anti-mite properties. The test was carried by an intrusion-prevention method in accordance with JIS L 1920 ‘Testing methods for efficacy against house dust mite of textiles’. Plates molded after adding the durable pest repellents prepared in Examples 2-1 to 2-12, the comparative pest repellents prepared in Comparative Examples 2-1 to 2-4, and Comparative Reference Example 2-1 to a polyethylene resin (PE-NUC-8350 manufactured by Nippon Unicar Co., Ltd.) so that the pest repellent component was 0.3 mass % were held in a dryer at 81° C. for 48 hours. They were cut into circles having a diameter of a little under 4 cm and subjected to a test for anti-mite properties. The test was carried by an intrusion-prevention method in accordance with JIS L 1920 ‘Testing methods for efficacy against house dust mite of textiles’.

[2] = Heat resistance by thermal analysis (TG/DTA in air); assay type: physicochemical; conditions: temperature at which amount of supported chemical component is reduced by 1/3, 30-600° C., 20° C./min
Experimental: Furthermore, it was confirmed by thermal analysis that the supported N,N-diethyl-m-toluamide acquired heat resistance. The thermal analysis was carried out using a Model TG/DTA220 manufactured by Seiko Instruments under an air atmosphere, the measurement temperature was 30° C. to 600° C., and the rate of temperature increase was 20° C./min. Since the measurement is carried out in air, the overall heat resistance in air including vaporization and oxidative decomposition can be evaluated, and N,N-diethyl-m-toluamide that only adheres to the surface of a porous substance having a large specific surface area is subjected to oxidative decomposition at relatively low temperature and the weight decreases, whereas it is expected that N,N-diethyl-m-toluamide that is packed between layers of the inorganic layered compound without gaps is resistant to vaporization and oxidative decomposition and the weight will be maintained up to a higher temperature. […]

[3] = Evaluation of resin moldability (injection molding in polyethylene resin); assay type: physicochemical; conditions: repellent chemical 0.3 %, molding 250° C., residence 5 min
From the text: The durable pest repellents prepared in Examples 1-1 to 1-10, and the comparative pest repellents prepared in Comparative Examples 1-1 to 1-14 and Comparative Reference Example 1-1 were mixed with a polyethylene resin (PE-NUC-8350, Nippon Unicar Co., Ltd.). For example, in the durable pest repellent of Example 1-1, since the amount of pest repellent chemical supported was 3 mass %, when the amount of repellent added in a resin composition shown in Table 2 was 5%, the amount of pest repellent chemical added was calculated as 0.15 mass %, and when the amount of repellent added in the resin composition was 10%, the amount of pest repellent chemical added was calculated as 0.3 mass %.
Resin compositions were produced by adjusting the amount of each repellent added to the resin composition so that the amount of pest repellent chemical added in the resin composition was 0.3 mass %, 0.15%, and 0.6%, they were injection-molded into flat plates, and evaluation of whether kneading into the resin was possible was carried out. Molding was carried out using a Model M-50A(II)-DM manufactured by Meiki Co., Ltd. at a molding temperature of 250° C., thus giving 10 cm square plates having a thickness of 2 mm. Furthermore, the residence time was 5 minutes, and checks as to whether or not there was foaming, a strange smell, or discoloration during molding were carried out. […]
The durable pest repellents prepared in Examples 2-1 to 2-12, the comparative pest repellents prepared in Comparative Examples 2-1 to 2-4, and Comparative Reference Example 2-1 were mixed with a polyethylene resin (PE-NUC-8350, Nippon Unicar Co., Ltd.). For example, in the durable pest repellent of Example 2-1, since the amount of pest repellent chemical supported was 5 mass %, when the amount of repellent added in a resin composition shown in Table 4 was 3%, the amount of pest repellent chemical added was calculated as 0.15 mass %, and when the amount of repellent added in the resin composition was […], the amount of pest repellent chemical added was calculated as 0.3 mass %. […]

house dust mite [4] = assay: Evaluation of repellency, anti-mite intrusion-prevention method JIS L 1920; assay type: in vivo; conditions: polyethylene plate, repellent chemical 0.3 %
Experimental: as §1, with “chemical” for “component”, “of the entire resin composition” for “were held in a dryer at 81° C. for 48 hours. They”, “2-4,” for “2-12, the”

CCN(CC)C(=O)c1cccc(C)c1 [Comp. Ref. Ex. 1-1, N,N-diethyl-m-toluamide]
Post-heating percentage repellence (house dust mite [1]): 0%
Heat resistance [2]: 180 °C
Molding properties Bad smell [3]: Some
Molding properties Coloration [3]: None
Molding properties Foaming [3]: Some
Initial percentage repellence (house dust mite [4]): 21%
